Legend:
[1] = Displacement of [125I]CGRP form CGRP receptor in human SK-N-MC cell membrane by competitive binding assay
[2] = Displacement of [125I]CGRP form CGRP receptor in human SK-N-MC cell membrane by competitive binding assay in the absence of MgCl2

Ki [1]: 0.01 nM
Ki [2]: 0.01 nM
SMILES: CC(C)C[C@H](NC(=O)CNC(=O)[C@H](C)NC(=O)[C@H](CC(C)C)NC(=O)[C@H](CCCN=C(N)N)NC(=O)[C@H](Cc1cnc[nH]1)NC(=O)[C@@H](NC(=O)[C@@H](NC(=O)[C@H](CS)NC(=O)[C@@H](NC(=O)[C@H](C)NC(=O)[C@@H](NC(=O)[C@H](CC(=O)O)NC(=O)[C@H](CS)NC(=O)[C@H](C)N)[C@@H](C)O)[C@@H](C)O)C(C)C)[C@@H](C)O)C(=O)N[C@@H](CC(C)C)C(=O)N[C@@H](CO)C(=O)N[C@@H](CCCN=C(N)N)C(=O)N[C@@H](CO)C(=O)NCC(=O)NCC(=O)N[C@H](C(=O)N[C@H](C(=O)N[C@@H](CCCCN)C(=O)N[C@@H](CC(N)=O)C(=O)N[C@@H](CC(N)=O)C(=O)N[C@@H](Cc1ccccc1)C(=O)N[C@H](C(=O)N1CCC[C@H]1C(=O)N[C@H](C(=O)N[C@@H](CC(N)=O)C(=O)N[C@H](C(=O)NCC(=O)N[C@@H](CO)C(=O)N[C@@H](CCCCN)C(=O)N[C@@H](C)C(=O)N[C@@H](Cc1ccccc1)C(N)=O)C(C)C)[C@@H](C)O)C(C)C)C(C)C)C(C)C

Source: BindingDB's records for doi:10.1016/j.bmcl.2011.09.056 (Merck Research Laboratories, 2011)
